Measured values reported in paper PMC8305768, “Design, Synthesis and Antiparasitic Evaluation of Click Phospholipids” (Molecules, 2021).
Structures can show the parent of a compound that is named as a salt. Where two headings read alike, the source gives them in different places.

Legend:
A549 cells = test: Cytotoxicity assay A549 (CellTiter-Glo); format: cell-based, human; conditions: compounds 10 μM; miltefosine 10 μM or 1 μM
Text: Early ADMET profiling: The early ADMET profiling of the new derivatives involved a group of assays widely used in drug development as part of the preclinical in vitro toxicity studies. In particular our panel included hERG inhibition, five cytochromes P450 (CYP1A2, CYP2C9, CYP2C19, CYP2D6 and CYP3A4), two cell-lines (A549, epithelial human lung adenocarcinoma, WI38 and foetal lung fibroblasts), Aurora B kinase and mitochondrial toxicity, in addition to the parasite relevant toxicity against THP1 macrophages. The compounds were tested at 10 μΜ, whilst the miltefosine control was tested at 10 μΜ or 1 μM. The toxicity of the new click phospholipids is depicted in Figure 3 in a traffic light format (from red through yellow to green for decreasing ADMET liabilities).
Cytotoxicity assay: A549 cells and WI-38 cells were grown on surface-modified T175 cell culture flasks in Dulbecco’s modified Eagle medium with 10% foetal calf serum (FCS), streptomycin (100 μg/mL) and 100 U/mL penicillin G. At about 80% confluency, cells were washed, trypsinized, resuspended and counted in RPMI-1640 medium before seeding (in triplicate) into white 384-well microtiter plates (20 μL) at 500 cells/well and incubated at 37 °C in the presence of 5% CO2 for 24 h. A total of 20 μL/well of CellTiter-Glo (CTG) reagent (Promega Corp., Madison, WI, USA) was added to each well, and plates were read using an EnVision Multilabel 2103 Reader after a 10-min incubation in the dark. Dose–response assays for compounds made use of 11-point curves. Each test compound (200 nL of 10 mM top concentration in 100% v/v DMSO) was added to cells seeded in polystyrene 384-well cell culture microtiter plates using the Echo 550 Liquid Handler and read after 24 h of incubation at 37 °C in the presence of 5% CO2 using CTG as described above. The compounds/positive control (paclitaxel with final concentration of 10 μM and 1% v/v DMSO) and no compound (final 1% v/v DMSO) were added into the 384-well plates (200 nL/well; 1% v/v DMSO) using the Echo 550 Liquid Handler. The raw luminescence signal of each sample was converted into the percentage of cell growth.

[1] = system: T. cruzi Y strain intracellular amastigotes; test: Activity against T. cruzi Y strain intracellular amastigotes (HG39 cell-line, parasite load); format: cell-based; conditions: Trypanosoma cruzi, read-out: Parassite Load Reduction (%)
Method: T. cruzi epimastigotes (Y strain) were obtained by axenic cultivation in the LIT medium, supplemented with 10% FBS (Cultilab, São Paulo, Brazil). Cultures were maintained at […] for 4–5 days until they reached the log growth phase. New cultures were made every 4 days from the initial inoculum of 2 × 10^6 parasites/mL. T. cruzi trypomastigotes (Y strain) were maintained in culture by the infection of LLC-MK2 (ATTC-CCL7) epithelial cells. This cell line was cultured in […] tissue culture bottles (TPP) in RPMI 1640 medium (Gibco), (Thermo Fischer Scientific, Carlsbad, CA, USA) supplemented with 10% FBS (Gibco) (Thermo Fischer Scientific, Carlsbad, CA, USA). Cultures were maintained at 37 °C under 5% CO2 atmosphere, and RPMI 1640 medium and SFB were exchanged every 48 h. After confluence, the cultures were treated with 1 mL of a mixture of trypsin and versene (Sigma, São Paulo, Brazil) (0.2 and 0.002%, respectively). After 24 h, a subconfluence culture was infected with the trypomastigotes in the approximate proportion of 10:1 parasites/cell. From five to seven days post infection, the trypomastigote stage was obtained from the culture supernatant. Alternatively (Figure 2), T. cruzi strain Y was maintained as previously described.

[2] = system: L. infantum (MHOM/MA/67/ITMAP-263) intracellular amastigotes; test: Activity against L. infantum MHOM/MA/67/ITMAP-263 intramacrophage amastigotes (luciferase, THP-1); format: cell-based, Leishmania infantum; conditions: for IC50 / inhibition at 10 µM / inhibition at 1 µM: Leishmania infantum; for IC50: THP-1, 72 h, read-out: L. infantum (MHOM/MA/67/ITMAP-263) Intracellular Amastigotes IC50 ± SD; for inhibition at 10 µM / inhibition at 1 µM: THP-1; for inhibition at 10 µM: read-out: Mean % Inhibition ± SD at 10μM; for inhibition at 1 µM: read-out: Mean % Inhibition ± SD at (1 μM) (converted)
Method: A cloned line of L. infantum (MOM/ MA671TMAP263) promastigotes were maintained in RPMI 1640 medium supplemented with 10% heat-inactivated foetal bovine serum (FBS), 2 mM L-glutamine, 20 mM HEPES and 1% Penn/Strep. Maintenance of promastigotes was done in T-25 flasks at 26 °C by subpassage at […] every 5−6 days. L. infantum axenic amastigotes expressing episomal luciferase were maintained in MAA/20 (axenic amastigote medium) at 37 °C under a 5% CO2 environment with subpassages every 5 days. LUC-positive parasites were selected by addition of geneticin sulphate (G418) to the culture at 60 μg/mL.
The efficacy of compounds against L. infantum intracellular amastigotes was determined according to the literature with slight modifications. Briefly, 1 × 10^6 THP-1 cell/mL were seeded in a 96 well flat bottom plate (100 µL/well) and differentiated into macrophages by addition of 20 ng/mL of phorbol-myristate 13-acetate (PMA, Sigma, Saint Louis, MI, USA) for 18 h, followed by replacement with fresh medium for 24 h. Then these cells were infected with luciferase-expressing L. infantum axenic amastigotes in a macrophage:amastigotes ratio of 1:10 for 4 h at 37 °C, 5% CO2. Non-internalized parasites were washed and compounds were added at different concentrations in a final volume of 100 µL. After 72 h of incubation, the media was substituted by 100 µL of PBS. Then of 25 µL of Glo-lysis buffer from the Steady-Glo Luciferase Assay System (Promega, Madison, WI, USA) was added mixed and incubated for 10 min with agitation at 100 rpm. Finally, 30 µL of the Steady-Glo reagent (Promega, Madison, WI, USA) was then added to the plate and was incubated for 15 min with agitation at 100 rpm and then the content of each well was transferred to white-bottom 96-well plates. Luminescence intensity was read using a Synergy 2 Multi-Mode Reader (Biotek, Winooski, VT, USA). The antileishmanial effect was evaluated by the determination of the IC50 value (concentration required to inhibit growth in 50%) and calculated by the non-linear regression analysis using GraphPad Prism version 8.1.1 for Windows (GraphPad Software, San Diego CA, USA).

[3] = CC50 THP-1 / IC50 L. infantum MHOM/MA/67/ITMAP-263

CCCCCc1cn(CCCCCCCCCCCOP(=O)([O-])OCC[N+](C)(C)C)nn1 [Compound 25, 11-(4-pentyl-1H-1,2,3-triazol-1-yl)undecyl (2-(trimethylammonio)ethyl) phosphate inner salt]
% cell growth ± SD at 10 μΜ A549 (A549 cells): 114.88%
inhibition of growth at 10 µM [1]: 66.2%
Selectivity Index CC50/IC50 [2, 3]: >3
IC50 [2]: 34.3 ± 19.4 µM
inhibition at 10 µM ([2]; 10 μM, 72 h, N.A. = inactive): 32 ± 19%

C[N+](C)(C)CCOP(=O)([O-])OCCCCCCCCCCCn1cc(CC2CCCC2)nn1 [Compound 28, 11-(4-(cyclopentylmethyl)-1H-1,2,3-triazol-1-yl)undecyl (2-(trimethylammo nio)ethyl) phosphate inner salt]
% cell growth ± SD at 10 μΜ A549 (A549 cells): 121.51%
inhibition of growth at 10 µM [1]: 58.3%
Mean % Inhibition ± SD at 10μM ([2]; 10 μM, 72 h, N.A. = inactive): inactive

C[N+](C)(C)CCOP(=O)([O-])OCCCCCCCCCCCn1cc(CC2CCCCC2)nn1 [Compound 29, 11-(4-(cyclohexylmethyl)-1H-1,2,3-triazol-1-yl)undecyl (2-(trimethylammonio)ethyl) phosphate inner salt]
% cell growth ± SD at 10 μΜ A549 (A549 cells): 120.63%
inhibition of growth at 10 µM [1]: 69.9%
inhibition at 10 µM ([2]; 10 μM, 72 h, N.A. = inactive): 43 ± 1%

C[N+](C)(C)CCOP(=O)([O-])OCCCCCn1cc(CCCCCCCCNC(=O)OCc2ccccc2)nn1 [Compound 31, 5-(4-(8-(((benzyloxy)carbonyl)amino)octyl)-1H-1,2,3-triazol-1-yl)pentyl (2-(trimethylammonio)ethyl) phosphate inner salt]
% cell growth ± SD at 10 μΜ A549 (A549 cells): 108.64%
inhibition of growth at 10 µM [1]: 0%

C[N+](C)(C)CCOP(=O)([O-])OCCCCCCCCCCCn1cc(CCCCCCCCNC(=O)OCc2ccccc2)nn1 [Compound 32, 11-(4-(8-(((benzyloxy)carbonyl)amino)octyl)-1H-1,2,3-triazol-1-yl)undecyl (2-(trimethylammonio)ethyl) phosphate inner salt]
inhibition of growth at 10 µM [1]: 0%
inhibition at 10 µM ([2]; 10 μM, 72 h, N.A. = inactive): 5 ± 18%

C[N+](C)(C)CCCOP(=O)([O-])OCCCCCCCCCCCn1cc(CC2CCCCC2)nn1 [Compound 33, 11-(4-(cyclohexylmethyl)-1H-1,2,3-triazol-1-yl)undecyl (3-(trimethylammonio)propyl) phosphate inner salt]
% cell growth ± SD at 10 μΜ A549 (A549 cells): 114.14%
inhibition of growth at 10 µM [1]: 0%
inhibition at 10 µM ([2]; 10 μM, 72 h, N.A. = inactive): 12 ± 5%

C[N+](C)(C)CCOP(=O)([O-])OCCCCCCCCCCCn1cc(CCCCCCCCC(=O)O)nn1 [Compound 34, 11-(4-(8-carboxyoctyl)-1H-1,2,3-triazol-1-yl)undecyl (2-(trimethylammonio)ethyl) phosphate inner salt]
inhibition of growth at 10 µM [1]: 0%
inhibition at 10 µM ([2]; 10 μM, 72 h, N.A. = inactive): 10 ± 9%

C[N+](C)(C)CCOP(=O)([O-])OCCCCCn1cc(CCCCCCCCN)nn1 [Compound 35, 5-(4-(8-aminooctyl)-1H-1,2,3-triazol-1-yl)pentyl (2-(trimethylammonio)ethyl) phosphate inner salt]
% cell growth ± SD at 10 μΜ A549 (A549 cells): 100.96%
inhibition of growth at 10 µM [1]: 0%

CCCCCCCCCCc1cc(CCCCCCCCCCOP(=O)([O-])OCC[N+](C)(C)C)no1 [Compound 41, 10-(5-decylisoxazol-3-yl)decyl (2-(trimethylammonio)ethyl) phosphate inner salt]
% cell growth ± SD at 10 μΜ A549 (A549 cells): 85.15%
inhibition of growth at 10 µM [1]: 63.3%
inhibition at 10 µM ([2]; 10 μM, 72 h, N.A. = inactive): 93.7 ± 10%

CCCCCCCCc1noc(CCCCCOP(=O)([O-])OCC[N+](C)(C)C)n1 [Compound 53, 5-(3-octyl-1,2,4-oxadiazol-5-yl)pentyl (2-(trimethylammonio)ethyl) phosphate inner salt]
% cell growth ± SD at 10 μΜ A549 (A549 cells): 87.74%
inhibition of growth at 10 µM [1]: 44.5%
inhibition at 1 µM ([2]; 72 h): 34.6%
inhibition at 10 µM ([2]; 10 μM, 72 h, N.A. = inactive): 98.4 ± 1%

CCCCCCCCc1noc(CCCCCCCCCCOP(=O)([O-])OCC[N+](C)(C)C)n1 [Compound 54, 10-(3-octyl-1,2,4-oxadiazol-5-yl)decyl (2-(trimethylammonio)ethyl) phosphate inner salt]
% cell growth ± SD at 10 μΜ A549 (A549 cells): 85.82%
inhibition of growth at 10 µM [1]: 90.5%
Selectivity Index CC50/IC50 [2, 3]: 13.6
IC50 [2]: 0.8 ± 0.18 µM
inhibition at 1 µM ([2]; 72 h): 67.1%
inhibition at 10 µM ([2]; 10 μM, 72 h, N.A. = inactive): 100.4 ± 1%

CCCCCCCc1nnc(CCCCCCCCCCOP(=O)([O-])OCC[N+](C)(C)C)o1 [Compound 65, 10-(5-heptyl-1,3,4-oxadiazol-2-yl)decyl (2-(trimethylammonio)ethyl) phosphate inner salt]
% cell growth ± SD at 10 μΜ A549 (A549 cells): 90.48%
inhibition of growth at 10 µM [1]: 92.2%
inhibition at 1 µM ([2]; 72 h): 4.8%
inhibition at 10 µM ([2]; 10 μM, 72 h, N.A. = inactive): 92.9 ± 5%

CCCCCCCCCCCc1nnc(CCCCCCCCCCOP(=O)([O-])OCC[N+](C)(C)C)o1 [Compound 66, 2-(trimethylammonio)ethyl (10-(5-undecyl-1,3,4-oxadiazol-2-yl)decyl) phosphate inner salt]
% cell growth ± SD at 10 μΜ A549 (A549 cells): 90.83%
inhibition of growth at 10 µM [1]: 69.7%
inhibition at 1 µM ([2]; 72 h): 3.3%
inhibition at 10 µM ([2]; 10 μM, 72 h, N.A. = inactive): 94.2 ± 3%

CCCCCCCCCCCCCCCCOP(=O)([O-])OCC[N+](C)(C)C [Miltefosine, hexadecylphosphocholine, reference compound]
% cell growth ± SD at 10 μΜ A549 (A549 cells): 95.80%
inhibition of growth at 10 µM [1]: 71.9%
Selectivity Index CC50/IC50 [2]: 4.9
IC50 [2]: 3.2 ± 1.4 µM
